# From US7772271B2 (priority 2004, dated 2010)
row,Compound,melting point
1,CC(C)NC(=O)N(C(=O)NC(C)C)c1ccc(-c2c(C#N)c3ccc(-c4ccccn4)cc3n2C2CCC2)cc1 [Compound 3226],193 to 194 °C
2,CCn1c(-c2ccc3c(c2)CCC(=O)N3)c(C#N)c2ccc(OC(C)C)cc21 [Compound 3227],148 to 150 °C
3,CC(OC(=O)Nc1ccc(-c2c(C#N)c3ccc(OCCNS(C)(=O)=O)cc3n2C2CCC2)cc1)C1CC1 (stereo not drawn) [Compound 3228],92 to 95 °C
4,CCS(=O)(=O)NCCOc1ccc2c(C#N)c(-c3ccc(NC(=O)OC(C)C4CC4)cc3)n(C3CCC3)c2c1 (stereo not drawn) [Compound 3229],88 to 91 °C
5,CCn1c(-c2ccc(NC(=O)OC(C)C)cc2)c(C#N)c2ccc(OC3CCS(=O)(=O)CC3)cc21 [Compound 3230],253 to 257 °C
6,CCn1c(-c2ccc(NC(=O)O[C@H](C)C3CC3)cc2)c(C#N)c2ccc(OC3CCS(=O)(=O)CC3)cc21 [Compound 3231],189 to 196 °C
7,CC(C)OC(=O)Nc1ccc(-c2c(C#N)c3ccc(OC4CCS(=O)(=O)CC4)cc3n2C2CC2)cc1 [Compound 3232],278 to 282 °C
8,C[C@@H](OC(=O)Nc1ccc(-c2c(C#N)c3ccc(OC4CCS(=O)(=O)CC4)cc3n2CC2CC2)cc1)C1CC1 [Compound 3233],193 to 198 °C
9,CC(C)n1c(-c2ccc(NC(=O)O[C@H](C)C3CC3)cc2)c(C#N)c2ccc(OC3CCS(=O)(=O)CC3)cc21 [Compound 3235],249 to 256 °C
10,CC(C)OC(=O)Nc1ccc(-c2c(C#N)c3ccc(OC4CCS(=O)(=O)CC4)cc3n2C(C)C)cc1 [Compound 3236],173 to 190 °C
11,N#Cc1nccnc1Oc1ccc2c(C#N)c(-c3ccc(NS(=O)(=O)CC4CCC4)cc3)n(CC3CC3)c2c1 [Compound 3238],205 to 208 °C
12,N#Cc1nccnc1Oc1ccc2c(C#N)c(-c3ccc(NS(=O)(=O)C4CC4)cc3)n(CC3CC3)c2c1 [Compound 3239],193 to 196 °C
13,N#Cc1c(-c2ccc(NCCCc3ccccc3)cc2)n(C2CCC2)c2cc(OCCF)ccc12 [Compound 3240],121 to 124 °C
14,N#Cc1c(-c2ccc(NCC3CCCCC3)cc2)n(C2CCC2)c2cc(OCCF)ccc12 [Compound 3241],169 to 173 °C
15,C[C@@H](OC(=O)Nc1ccc(-c2c(C#N)c3ccc(-c4ncccc4C#N)cc3n2C2CCC2)cc1)C1CC1 [Compound 3243],183 to 185 °C
16,CCCS(=O)(=O)Nc1ccc(-c2c(C#N)c3ccc(-c4ncccc4C#N)cc3n2C2CCC2)cc1 [Compound 3244],223 to 225 °C
17,C[C@@H](OC(=O)Nc1ccc(-c2c(C#N)c3ccc(OC4CCS(=O)(=O)CC4)cc3n2C2CCCC2)cc1)C1CC1 [Compound 3245],243 to 250 °C
18,CC(C)OC(=O)Nc1ccc(-c2c(C#N)c3ccc(OC4CCS(=O)(=O)CC4)cc3n2C2CCCC2)cc1 [Compound 3246],223 to 227 °C
19,C[C@@H](OC(=O)Nc1ccc(-c2c(C#N)c3ccc(-c4ncccc4[N+](=O)[O-])cc3n2C2CCC2)cc1)C1CC1 [Compound 3247],199 to 201 °C
20,CCCS(=O)(=O)Nc1ccc(-c2c(C#N)c3ccc(Oc4nccnc4C#N)cc3n2CC2CC2)c(C)c1 [Compound 3248],238 to 241 °C
21,CCCS(=O)(=O)Nc1ccc(-c2c(C#N)c3ccc(Oc4ncccc4C#N)cc3n2CC2CC2)c(C)c1 [Compound 3249],235 to 239 °C

row,Compound,melting point
1,CCCS(=O)(=O)Nc1ccc(-c2c(C#N)c3ccc(Oc4ncccc4C#N)cc3n2CC2CC2)cc1 [Compound 3250],232 to 235 °C
2,N#Cc1c(-c2ccc(Nc3ncccn3)cc2)n(CC2CC2)c2cc(OCCF)ccc12 [Compound 3251],212 to 213 °C
3,CCOc1ccc2c(C#N)c(-c3ccc(Nc4ncccn4)cc3)n(CC3CC3)c2c1 [Compound 3252],223 to 224 °C
4,Cc1nccnc1Oc1ccc2c(c1)c(C#N)c(-c1ccc(NC(=O)O[C@H](C)C3CC3)cc1)n2C1CCC1 [Compound 3254],214 to 215 °C
5,C[C@@H](OC(=O)Nc1ccc(-c2c(C#N)c3cc(Oc4nccnc4Cl)ccc3n2C2CCC2)cc1)C1CC1 [Compound 3255],209 to 211 °C
6,C[C@@H](OC(=O)Nc1ccc(-c2c(C#N)c3cc(Oc4ncccc4C#N)ccc3n2C2CCC2)cc1)C1CC1 [Compound 3256],217 to 218 °C
7,Cc1cccc(Oc2ccc3c(c2)c(C#N)c(-c2ccc(NC(=O)O[C@H](C)C4CC4)cc2)n3C2CCC2)n1 [Compound 3257],205 to 208 °C
8,C[C@@H](OC(=O)Nc1ccc(-c2c(C#N)c3ccc(-c4cccc(N5CCCC5)n4)cc3n2C2CCC2)cc1)C1CC1 [Compound 3258],250 to 252 °C
9,C[C@@H](OC(=O)Nc1ccc(-c2c(C#N)c3ccc(-c4cc(N(C)C)ccn4)cc3n2C2CCC2)cc1)C1CC1 [Compound 3259],203 to 208 °C
10,C[C@@H](OC(=O)Nc1ccc(-c2c(C#N)c3ccc(Oc4nccnc4C#N)cc3n2C2CC2)cc1)C1CC1 [Compound 3262],223 °C (dec.)
11,C[C@@H](OC(=O)Nc1ccc(-c2c(C#N)c3ccc(Oc4ncccc4C#N)cc3n2C2CC2)cc1)C1CC1 [Compound 3263],183 to 185 °C
12,C[C@@H](OC(=O)Nc1ccc(-c2c(C#N)c3ccc(OCCN4CCCC4=O)cc3n2C2CCC2)cc1)C1CC1 [Compound 3266],159 to 162 °C
13,N#Cc1c(-c2ccc(NC(=O)OC3CCS(=O)(=O)CC3)cc2)n(C2CCC2)c2cc(Oc3ncccn3)ccc12 [Compound 3267],181 to 212 °C
14,Cc1csc(Nc2ccc(-c3c(C#N)c4ccc(Oc5ncccn5)cc4n3C3CC3)cc2)n1 [Compound 3268],223 to 225 °C
15,N#Cc1c(-c2ccc(NC(=O)OC3CCS(=O)(=O)CC3)cc2)n(C2CC2)c2cc(Oc3ncccn3)ccc12 [Compound 3269],240 to 246 °C
16,Cc1csc(Nc2ccc(-c3c(C#N)c4ccc(Oc5ncccc5F)cc4n3C3CC3)cc2)n1 [Compound 3270],193 to 195 °C
17,C[C@@H](OC(=O)Nc1ccc(-c2c(C#N)c3ccc(OCCN4C(=O)CCC4=O)cc3n2C2CCC2)cc1)C1CC1 [Compound 3271],80 to 83 °C
18,C[C@@H](OC(=O)Nc1ccc(-c2c(C#N)c3ccc(OCCN4C(=O)CN(C)C4=O)cc3n2C2CCC2)cc1)C1CC1 [Compound 3272],79 to 81 °C
19,CCCS(=O)(=O)Nc1ccc(-c2c(C#N)c3ccc(Oc4ncccc4C#N)cc3n2C2CCC2)c(C)c1 [Compound 3273],227 to 230 °C
20,CCCS(=O)(=O)Nc1ccc(-c2c(C#N)c3ccc(Oc4nccnc4C#N)cc3n2C2CCC2)c(C)c1 [Compound 3274],222 to 225 °C
21,C[C@H](NS(=O)(=O)Nc1ccc(-c2c(C#N)c3ccc(Oc4ncccc4C#N)cc3n2C2CCC2)cc1)C1CC1 [Compound 3275],130 °C (dec.)

row,Compound,melting point
1,C[C@H](NS(=O)(=O)Nc1ccc(-c2c(C#N)c3ccc(Oc4nccnc4C#N)cc3n2C2CCC2)cc1)C1CC1 [Compound 3276],209 to 212 °C
2,CC(C)OC(=O)Nc1ccc(-c2c(C#N)c3ccc(-n4ccccc4=O)cc3n2C2CCC2)cc1 [Compound 3277],267 to 268.5 °C
3,CC(C)OC(=O)Nc1ccc(-c2cc3ccc(Oc4nccnc4C#N)cc3n2CC2CC2)cc1 [Compound 3282],181 to 182 °C
4,C[C@@H](OC(=O)Nc1ccc(-c2cc3ccc(Oc4nccnc4C#N)cc3n2CC2CC2)cc1)C1CC1 [Compound 3283],145 to 147 °C
5,C[C@@H](OC(=O)Nc1ccc(-c2cc3ccc(Oc4nccnc4C#N)cc3n2CC2CC2)cc1)C(F)(F)F [Compound 3284],99 to 101 °C
6,Cc1cc(Nc2ccc(-c3c(C#N)c4ccc(Oc5nccnc5C#N)cc4n3C3CCC3)cc2)n(C)n1 [Compound 3286],233 to 235 °C
7,Cc1ccnc(Oc2ccc3c(C#N)c(-c4ccc(Nc5cc(C)nn5C)cc4)n(C4CCC4)c3c2)n1 [Compound 3287],166 to 168 °C
8,CCCS(=O)(=O)Nc1ccc(-c2c(C#N)c3ccc(Oc4nccnc4C#N)cc3n2C2CCC2)cc1C [Compound 3288],215 to 217 °C
9,Cc1cc(-c2c(C#N)c3ccc(Oc4nccnc4C#N)cc3n2C2CCC2)ccc1NS(=O)(=O)CC(C)C [Compound 3289],177 to 178 °C
10,CCCS(=O)(=O)Nc1ccc(-c2c(C#N)c3ccc(Oc4ncccc4C#N)cc3n2C2CCC2)cc1C [Compound 3290],176 to 180 °C
11,N#Cc1c(-c2ccc(NCC(F)F)cc2)n(C2CCC2)c2ccc(OCC(F)F)cc12 [Compound 3292],159 to 161 °C
12,N#Cc1nccnc1Oc1ccc2c(C#N)c(-c3ccc(NS(=O)(=O)C4CCC4)cc3)n(CC3CC3)c2c1 [Compound 3295],236 to 238 °C
13,CCCS(=O)(=O)Nc1ccc(-c2c(C#N)c3ccc(OCCCN4C(=O)CCC4=O)cc3n2C2CCC2)cc1 [Compound 3296],215 to 216 °C
14,CCCS(=O)(=O)Nc1ccc(-c2c(C#N)c3ccc(OCCCN4C(=O)CN(C)C4=O)cc3n2C2CCC2)cc1 [Compound 3299],178 to 179 °C
15,CN(C)/C=N/c1ccc(-c2c(C#N)c3ccc(Oc4ncccn4)cc3n2C2CCC2)cc1Cl [Compound 3300],215 to 216 °C
16,CCCS(=O)(=O)Nc1ccc(-c2c(C#N)c3ccc(Oc4cnccc4C#N)cc3n2CC2CC2)c(C)c1 [Compound 3303],138 to 142 °C
17,CCCS(=O)(=O)Nc1ccc(-c2c(C#N)c3ccc(Oc4ncccc4C#N)cc3n2C2CC2)c(C)c1 [Compound 3304],222 to 226 °C
18,CCCS(=O)(=O)Nc1ccc(-c2c(C#N)c3ccc(Oc4nccnc4C#N)cc3n2C2CC2)c(C)c1 [Compound 3305],225 to 228 °C
19,CCCS(=O)(=O)Nc1ccc(-c2c(C#N)c3ccc(Oc4ncccc4C#N)cc3n2CC2CC2)c(Cl)c1 [Compound 3306],218 to 220 °C
20,CCCS(=O)(=O)Nc1ccc(-c2c(C#N)c3ccc(Oc4nccnc4C#N)cc3n2CC2CC2)c(Cl)c1 [Compound 3307],243 to 246 °C
21,CCCS(=O)(=O)Nc1ccc(-c2c(C#N)c3ccc(Oc4ncccc4C(=O)OCC)cc3n2C2CCC2)cc1 [Compound 3308],138 to 142 °C
